Laboratory results reported in patent publication US20240415836A1, “COMPOSITION COMPRISING TWO ENZYME INHIBITORS TARGETING TWO DIFFERENT CONFORMATIONS OF AN ENZYME” (University College Dublin, priority 2018, published 2024).
Read-outs that look alike come from different tables or passages of the source.

Tests used:
[1] = test system: DND41 (T-ALL leukaemia) cells; assay: Proliferation of DND41 cells, 4 days; assay type: cell-based; details: doses exceeding 10 μM of each drug, alone and in combination
Method: Inventors' model predictions were corroborated by cell line experiments where proliferation responses of T-ALL cells (DND41) to Type I inhibitor Ruxolitinib, Type II inhibitor CHZ868, and their combination were measured (FIG. 17). […] However, the inventors observed saturation of inhibition of cellular proliferation. […] This incomplete inhibition of proliferation is explained by activation of STAT family of transcription factors by alternative signalling pathways.

[2] = test system: MEK signaling, A375 (WT RAS, BRAF^V600E/V600E) cells; assay: cells; details: Homo sapiens, A-375, 1 h, read-out: IC50, MEK signaling response
Method: (§1) Cell lines were either purchased from ATCC (SKMEL2, A375) or DSMZ (MEL-JSUO). […] All cells were grown in RPMI (Gibco) supplemented with 2 mM L-glutamine and 10% (v/v) fetal bovine serum in a humidified atmosphere of 5% CO2 at 37° C. Cells were seeded in 12-well plates (Greiner CELLSTAR dishes) at the density of 10^5 cells per well. After reaching sufficient confluency, cells were treated with different concentrations of inhibitors and DMSO as control. To prepare the protein lysates, plates were transferred on ice, washed with ice-cold PBS and harvested by scraping in specific ELISA buffers as indicated below.
(§2) Briefly, following the addition of complete MSD lysis buffer and scraping the cells from the surface of the dish, the cellular debris was removed from the lysate by centrifugation at 10000×g at 4° C. for 10 min. Protein concentration was determined using the BCA test according to the manufacturer's instructions (Pierce™ BCA Protein Assay Kit).

[3] = test system: ERK signaling, MEL-JUSO cells; assay: ERK signaling (ppERK) in growing MEL-JUSO cells, LUMINEX xMAP, 24 hr; assay type: cell-based; details: extending into the micromolar range
Method: Following the addition of complete Luminex lysis buffer and scraping the cells from the surface of the dish, the cellular debris was removed from the lysate by centrifugation at 10000×g at 4° C. for 10 min. The pellet was discarded and the protein concentration of lysates was adjusted to 0.3 μg/μL using the BCA assay kit. xMAP assays were performed on a Luminex-3D platform (Luminex, Austin, TX) using commercially available phosphoprotein antibody-coupled beads (ProtATonce, Athens, Greece). […] Additionally, for loading control the levels of glyceraldehyde 3-phosphate dehydrogenase (GAPDH) protein were analyzed in a separate setting.

[4] = test system: ERK signaling, MEL-JUSO cells; assay: ERK signaling (ppERK) in growing MEL-JUSO cells, MESOSCALE system, 24 hr; assay type: cell-based; details: applied separately, high doses (12 μM), following paradoxical activation
Method: as §1, §2

[5] = test system: MEL-JUSO cells; assay: Cell proliferation assay (MTS) in MEL-JUSO cells; assay type: cell-based; details: Homo sapiens, read-out: GI50 (a dose inhibiting cell proliferation by 50%)
Method: Cell proliferation was analyzed by CellTiter 96 Aqueous One Solution Cell Proliferation Assay (MTS; Promega) according to manufacturer's instructions. For this, 5,000 cells were plated per well of 96-well tissue culture plates (in 200 μL of medium).

[6] = test system: all RAF isoforms; details: literature (King 2006; Wan 2004; Wilhelm 2004); cited from earlier work
[7] = test system: ERK signaling, MEL-JUSO cells; assay: ERK signaling in growing MEL-JUSO cells, Western Blot, 1 hr; assay type: cell-based; details: trametinib at doses that do not fully inhibit ERK activation
Method: Cells were transferred on ice, scraped using lysis buffer (10 mM Tris pH 7.5, 150 mM NaCl, and 0.5% (v/v) NP-40) complemented with protease and phosphatase inhibitors, and the cellular debris removed from the lysate by centrifugation at 10,000×g at 4° C. for 10 min. […] Lysates were then resolved by SDS PAGE (12%) and transferred on a polyvinylidene difluoride membrane (Millipore). Protein visualization was performed in combination with horseradish peroxidase-conjugated secondary antibodies (Cell Signalling Technologies) and the enhanced chemiluminescence system (GE Healthcare) using the Advanced Molecular Vision Chemi Image Unit associated with ChemoStar Imager (INTAS Science Imaging Instruments GmbH) for the following antibodies: Polyclonal rabbit anti-human mitogen-activated protein (MAP) kinase [extra-cellular signal-regulated kinase (ERK) 1 and ERK2] antibody (Sigma), monoclonal mouse anti-human MAP kinase activated (diphosphorylated ERK1 and ERK2) antibody (Sigma).

[8] = test system: HER2-positive breast cancer cells; assay: HER2-positive breast cancer cells stimulated with Heregulin (HRG); assay type: cell-based
Method: Thus, in order to model conditions of resistance to ErbB inhibitors, all proliferation assays were performed in the presence of HRG.

[9] = test system: RAF; details: literature values; cited from earlier work

With `N#CC[C@H](C1CCCC1)n1cc(-c2ncnc3[nH]ccc23)cn1` [Ruxolitinib] the “plateau level of suppression of cellular proliferation” value [1] was about 60%.

In the case of `CNC(=O)c1cc(Oc2ccc(NC(=O)Nc3ccc(Cl)c(C(F)(F)F)c3)cc2)ccn1` [sorafenib], the IC50 [2] is reported as 44 µM, the “ERK response to each inhibitor applied separately” value [3] is reported as “marked paradoxical ERK activation” and the ppERK response [4] is reported as “could only slightly inhibit ppERK”. For the same molecule, the GI50 ([5]; MEL-JUSO) was 8 µM and the “inhibition of RAF isoforms in in vitro kinase assays” value [6] was “low nM range”.

For `CC(C)(C)c1nc(-c2cccc(NS(=O)(=O)c3c(F)cccc3F)c2F)c(-c2ccnc(N)n2)s1` [dabrafenib], the “effect on ERK signaling of addition to trametinib” value [7] was “increases rather than decreases ERK signaling”.

In the case of `CCCS(=O)(=O)Nc1ccc(F)c(C(=O)c2c[nH]c3ncc(-c4ccc(Cl)cc4)cc23)c1F` [vemurafenib], the GI50 ([5]; MEL-JUSO cells, applied individually) is reported as 32 µM.

With `CC(=O)Nc1cc(Oc2ccc3c(nc(Nc4ccc(F)cc4F)n3C)c2C)ccn1` [CHZ868] the “plateau level of suppression of cellular proliferation” value [1] was about 60%.

For `CS(=O)(=O)CCNCc1ccc(-c2ccc3ncnc(Nc4ccc(OCc5cccc(F)c5)c(Cl)c4)c3c2)o1` [Lapatinib], the “sensitivity of cells after stimulation with Heregulin (HRG)” value [8] was “resistant to Lapatinib treatment”.

In the case of `COC(=O)N[C@@H](C)CNc1nccc(-c2cn(C(C)C)nc2-c2cc(Cl)cc(NS(C)(=O)=O)c2F)n1` [LGX818], the 1/koff [9] is listed as at least 2 h.
